# pEC50: −log10 of the molar value.
# Legend:
# [1] = Acute toxicity (LD50, autopsy); format: in vivo; conditions: orally
# Description: In the autopsy, no visible obvious injure was found in main visceral organs, and there was no statistical difference in the change in organ coefficient.
# PPARδ = PPARδ (Homo sapiens (Human), UniProt Q03181); assay: Nuclear receptor reporter gene (luciferase) screening model, PPARδ activation in HepG2 cells; format: cell-based; conditions: for Experiment results (relative activation fold) PPARδ: HepG2, solvent control = 1; for pEC50: HepG2 reporter gene, 6 concentrations
# Chain of PPARδ (Q03181 whole entry, species assumed): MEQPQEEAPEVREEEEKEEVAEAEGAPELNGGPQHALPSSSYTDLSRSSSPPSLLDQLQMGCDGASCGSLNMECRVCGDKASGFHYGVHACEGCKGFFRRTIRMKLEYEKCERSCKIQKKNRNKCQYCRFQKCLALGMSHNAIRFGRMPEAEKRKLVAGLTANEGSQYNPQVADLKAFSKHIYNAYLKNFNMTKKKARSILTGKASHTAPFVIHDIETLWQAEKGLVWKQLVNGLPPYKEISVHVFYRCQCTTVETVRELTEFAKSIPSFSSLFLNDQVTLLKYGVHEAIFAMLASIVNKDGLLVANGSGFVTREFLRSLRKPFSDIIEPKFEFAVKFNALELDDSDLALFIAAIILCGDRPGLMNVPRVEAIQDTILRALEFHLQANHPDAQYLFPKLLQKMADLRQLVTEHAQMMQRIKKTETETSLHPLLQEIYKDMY
# Chain of PPARδ (P19793 whole entry partner, species assumed): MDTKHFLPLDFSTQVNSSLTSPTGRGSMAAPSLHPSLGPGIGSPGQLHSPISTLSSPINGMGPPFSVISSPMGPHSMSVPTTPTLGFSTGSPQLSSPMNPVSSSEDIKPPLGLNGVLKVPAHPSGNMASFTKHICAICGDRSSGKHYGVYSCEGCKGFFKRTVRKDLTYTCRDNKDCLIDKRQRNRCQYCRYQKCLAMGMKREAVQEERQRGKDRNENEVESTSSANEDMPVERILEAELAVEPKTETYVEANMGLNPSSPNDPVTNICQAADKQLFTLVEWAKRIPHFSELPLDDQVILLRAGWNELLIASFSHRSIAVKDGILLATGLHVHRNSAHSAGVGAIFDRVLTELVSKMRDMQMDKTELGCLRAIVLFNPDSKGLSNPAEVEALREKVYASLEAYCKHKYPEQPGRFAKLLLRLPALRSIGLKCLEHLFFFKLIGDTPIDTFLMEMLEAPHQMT
# Description: (§1) Using a reporter gene method, a screening model for screening a nuclear receptor agonist in living cells is designed on the basis of the principal that a nuclear receptor can activate transcription of its downstream gene after being activated. A reporter gene plasmid is constructed, in which the DNA binding sequence for the nuclear receptor (NRE) is inserted at the upstream of a luciferase gene, such that the expression of the luciferase gene is regulated by the nuclear receptor. The reporter gene plasmid is transferred into a cell simultaneously with the nuclear receptor. The nuclear receptor will be activated when a nuclear receptor agonist presents in the cell culture medium. The receptor being activated can induce the expression of the luciferase gene, while the amount of generated luciferase can be determined with its luminescent substrate. In this way, the intensity of activation of the nuclear receptor by the compound can be determined by observing the luminescence intensity. For the calibration of the experimental error caused by factors such as transfection efficiency, amount of inoculated cells, toxicity of the compound, etc, a GFP plasmid is co-transfected simultaneously as the internal reference. In the analysis of the experimental results, the luminescent values tested for all wells are calibrated with GFP values. The experimental results are expressed as relative activation fold, with a value of 1 for the solvent control. The greater the fold is, the higher the activation capacity represents.
# (§2) The detailed procedure is described as follows:
# (§3) Hepatocarcinoma cell HepG2 (from ATCC, American Type Culture Collection) was cultured in a DMEM medium supplemented with 10% heat-inactivated fetal bovine serum (FBS, Invitogen, Grand Island, N.Y., USA) in a T-75 culture flask (Greiner, Germany) placed in a 5% CO2 incubator at 37° C. and 100% relative humidity.
# (§4) On the next day, when the cells in the 96-well culture plate grew up to 50-80% confluency, cell transfection was performed. The cell co-transfection system comprised FuGene6 transfection agent (Roche Molecular Biochemicals, Indianapolis, Ind., U.S.A.) and 60 ng DNA (10 ng hRXR, 10 ng pCMV βGal, 10 ng nuclear receptor expression plasmid RXR/PPARα, δ, γ, 30 ng GFP fluorescence reporter gene plasmid, respectively).
# (§5) The cell culture medium was discarded immediately after 24 hours of transfection and replaced by 200 μl fresh DMEM medium containing the test medicament (with 10% FBS treated by activated carbon). The final concentration gradients of the test medicament were 10 μM, 5 μM, 1 μM, 0.1 μM, 0.01 μM, 0.001 μM, and 0 μM. 0.05 μM 2-bromostearic acid (purchased from Sigma, USA) was used as the positive control. The final concentration of DMSO in each well was 0.1%.
# (§6) After 24 h treatment with the medicament, the cells were lysed with a lysis solution (Cell Culture Lysis buffer, Promega) and centrifuged, and the supernatant was collected. The supernatant was reacted with a fluorescence assay kit (Promega) and counted by a fluorometer (Ascent Fluoroskan FL reader, Thermo Labsystems, Finland), and the relative intensity of luciferase was determined. For the assay of the β-galactosidase activity used in the experiment as the internal reference (the internal reference for calibrating the transfection efficiency), 50 μl of the supernatant was transferred into a fresh microplate, treated with a Promega kit, and the value was read with a microplate reader at a wavelength of 405 nm (Bio-tech Instruments Inc., Winooski, Vt., USA) (Sauerberg, P.; Olsen, G. S.; Jeppesen, L.; Mogensen, J. P. et al., J. Med. Chem., 2007, 50, 1495-1503).
# (§7) In the present screening protocol, it was calculated according to the activation of the receptor by the sample at 6 different concentrations.
# (§8) The concentration-activity profile of the effects of a compound was fitted by carrying out iterative computation according to the following formula, and corresponding EC50 was calculated: […]
# PPARγ = PPARγ (Homo sapiens (Human), UniProt P37231); assay: Nuclear receptor reporter gene (luciferase) screening model, PPARγ activation in HepG2 cells; format: cell-based; conditions: for Experiment results (relative activation fold) PPARγ: HepG2, solvent control = 1; for pEC50: HepG2 reporter gene, 6 concentrations
# Chain of PPARγ (P37231 whole entry, species assumed): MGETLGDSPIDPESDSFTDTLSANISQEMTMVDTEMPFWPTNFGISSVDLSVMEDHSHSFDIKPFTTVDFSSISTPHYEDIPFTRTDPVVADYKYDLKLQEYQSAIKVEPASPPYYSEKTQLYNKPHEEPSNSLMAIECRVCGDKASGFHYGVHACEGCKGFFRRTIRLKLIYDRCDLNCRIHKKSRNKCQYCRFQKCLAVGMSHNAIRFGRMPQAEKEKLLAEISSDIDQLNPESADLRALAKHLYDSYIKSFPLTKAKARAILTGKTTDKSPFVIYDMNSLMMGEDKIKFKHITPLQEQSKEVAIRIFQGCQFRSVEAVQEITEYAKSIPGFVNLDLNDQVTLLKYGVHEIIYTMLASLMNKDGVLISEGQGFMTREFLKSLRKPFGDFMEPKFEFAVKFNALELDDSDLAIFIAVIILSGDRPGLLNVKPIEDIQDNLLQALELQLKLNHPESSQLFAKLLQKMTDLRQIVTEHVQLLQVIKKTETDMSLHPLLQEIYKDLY
# Chain of PPARγ (P19793 whole entry partner, species assumed): as the sequence (P19793 whole entry partner, species assumed) above
# Description: as §1, §2, §3, §4, §5, §6, §7, §8
# PPARα = PPARα (Homo sapiens (Human), UniProt Q07869); assay: Nuclear receptor reporter gene (luciferase) screening model, PPARα activation in HepG2 cells; format: cell-based; conditions: for Experiment results (relative activation fold) PPARα: HepG2, solvent control = 1; for pEC50: HepG2 reporter gene, 6 concentrations
# Chain of PPARα (Q07869 whole entry, species assumed): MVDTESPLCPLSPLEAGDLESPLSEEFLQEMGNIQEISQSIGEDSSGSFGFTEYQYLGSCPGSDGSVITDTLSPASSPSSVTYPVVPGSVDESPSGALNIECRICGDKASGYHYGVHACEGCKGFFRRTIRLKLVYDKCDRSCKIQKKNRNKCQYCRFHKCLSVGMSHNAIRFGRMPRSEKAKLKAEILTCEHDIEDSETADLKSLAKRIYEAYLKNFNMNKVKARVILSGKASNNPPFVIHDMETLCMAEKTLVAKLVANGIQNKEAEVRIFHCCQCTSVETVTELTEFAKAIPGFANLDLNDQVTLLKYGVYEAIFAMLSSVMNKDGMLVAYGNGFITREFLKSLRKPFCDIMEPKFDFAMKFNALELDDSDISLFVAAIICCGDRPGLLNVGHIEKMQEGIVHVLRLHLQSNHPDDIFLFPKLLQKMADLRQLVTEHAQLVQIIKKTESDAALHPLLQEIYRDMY
# Chain of PPARα (P19793 whole entry partner, species assumed): as the sequence (P19793 whole entry partner, species assumed) above
# Description: as §1, §2, §3, §4, §5, §6, §7, §8
Compound,Experiment results (relative activation fold) PPARδ (PPARδ; 0.001 uM),Experiment results (relative activation fold) PPARδ (PPARδ; 0.01 uM),Experiment results (relative activation fold) PPARδ (PPARδ; 0.1 uM),Experiment results (relative activation fold) PPARδ (PPARδ; 1 uM),Experiment results (relative activation fold) PPARδ (PPARδ; 5 uM),Experiment results (relative activation fold) PPARδ (PPARδ; 10 uM),pEC50 (PPARδ),Experiment results (relative activation fold) PPARγ (PPARγ; 0.001 uM),Experiment results (relative activation fold) PPARγ (PPARγ; 0.01 uM),Experiment results (relative activation fold) PPARγ (PPARγ; 0.1 uM),Experiment results (relative activation fold) PPARγ (PPARγ; 1 uM),Experiment results (relative activation fold) PPARγ (PPARγ; 5 uM),Experiment results (relative activation fold) PPARγ (PPARγ; 10 uM),pEC50 (PPARγ),Experiment results (relative activation fold) PPARα (PPARα; 0.001 uM),Experiment results (relative activation fold) PPARα (PPARα; 0.01 uM),Experiment results (relative activation fold) PPARα (PPARα; 0.1 uM),Experiment results (relative activation fold) PPARα (PPARα; 1 uM),Experiment results (relative activation fold) PPARα (PPARα; 5 uM),Experiment results (relative activation fold) PPARα (PPARα; 10 uM),other results
CN(CCOc1ccc(CC2SC(=O)NC2=O)cc1)c1ccccn1 (stereo not shown) [rosiglitazone],,,,,,,,,,,,,,,,,,,,,LD50 [1]: 3000 to 4000 mg/kg
CCc1cc(OCCc2nc(-c3ccc(C#N)cc3)oc2C)ccc1CCC(=O)O [Compound 8],1.65 fold,2.69 fold,3.58 fold,3.94 fold,4.23 fold,4.40 fold,8.22,1.38 fold,2.29 fold,3.72 fold,4.75 fold,4.29 fold,4.24 fold,7.66,1.23 fold,1.35 fold,1.48 fold,1.41 fold,1.71 fold,1.93 fold,pEC50 (PPARα): 5.28
CCc1cc(OCCc2nc(-c3ccc(C)cc3)oc2C)ccc1CCC(=O)O [Compound 5],1.57 fold,2.44 fold,3.61 fold,3.69 fold,3.57 fold,4.64 fold,8.15,1.98 fold,2.99 fold,3.75 fold,3.95 fold,3.82 fold,4.11 fold,8.40,1.33 fold,1.45 fold,1.37 fold,1.58 fold,1.98 fold,1.91 fold,activation effect on PPARδ receptor (in words) (PPARδ; screening results): better activation effects; activation effect on PPARγ receptor (in words) (PPARγ; screening results): better activation effects; pEC50 (PPARα): 5.93; activation effect on PPARα receptor (in words) (PPARα; screening results): better activation effects
CCc1cc(OCCc2coc(-c3ccc(C(F)(F)F)cc3)n2)ccc1CCC(=O)O [Compound 2],1.02 fold,1.17 fold,1.17 fold,1.34 fold,1.45 fold,1.99 fold,> 9.00,1.09 fold,1.26 fold,1.26 fold,1.49 fold,1.73 fold,2.28 fold,6.16,1.01 fold,1.06 fold,1.16 fold,1.30 fold,1.38 fold,1.82 fold,pEC50 (PPARα): 5.26

# Source: patent US9346770B2, “Compounds having activating effect on subtypes of peroxisome proliferator-activated receptors and its preparation method and uses” (ZHEJIANG HISUN PHARMACEUTICAL CO., LTD., priority 2010, dated 2016)
